Experimental data taken from patent publication US7323596B2, “Antimicrobial agents” (De Novo Pharmaceuticals Ltd., priority 2000, dated 2008).
Values after ≈ are worked out from the molar mass of the structure shown.

How the values were obtained:
E coli PDF (Ni) = E coli PDF (Ni) (Escherichia coli, UniProt P0A6K3); assay: inhibition of the PDF E. coli (Ni) enzyme; assay type: biochemical; details: Ni form of E. coli PDF enzyme
Protocol: Examples 2-5 were prepared in a manner analogous to example 1. Also shown is there inhibition of the PDF E. coli(Ni) enzyme.

Haemophilia influenza = assay: MIC by standard agar plate dilution method; assay type: cell-based
Protocol: The susceptibilities of strains of bacteria to the compound of Example 1 were determined by a standard agar plate dilution method following recommendations in British Society for Antimicrobial Chemotherapy Working Party. 1991, “A guide to sensitivity testing British Society for Antimicrobial Chemotherapy, London, United Kingdom”. Briefly, Iso-Sensitest agar (pH 7.2: Oxoid, United Kingdom) is employed, supplemented with 5% horse blood (Oxoid) and 20 μg of NAD (Sigma) per ml are added to support growth of fastidious bacteria. The inoculum used is approximately 10^4 colony forming units of each isolate contained in a volume of 1 μl. Plates are incubated 18 to 24 hr in air, or for fastidious bacteria an atmosphere enriched with 4-6% carbon dioxide at 35° C. The MIC is determined as the lowest concentration of an Antimicrobial tested that inhibited growth of the inoculum, disregarding a single persisting colony or faint haze caused by the inoculation.

E coli PDF (Ni), sequence (P0A6K3 whole entry): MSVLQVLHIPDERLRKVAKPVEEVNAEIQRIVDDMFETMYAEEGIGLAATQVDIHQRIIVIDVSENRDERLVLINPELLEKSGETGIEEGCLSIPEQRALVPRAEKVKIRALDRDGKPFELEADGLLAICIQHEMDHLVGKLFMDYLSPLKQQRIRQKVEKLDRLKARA

CCCC[C@H](CN(O)C=O)NC(=O)c1cn(CC)c2ccc(Cl)cc2c1=O [Example 4, 6-Chloro-1-ethyl-4-oxo-1,4-dihydro-quinoline-3-carboxylic acid {1R[(formyl-hydroxy-amino)-methyl]-pentyl}-amide]
IC50 (E coli PDF (Ni)): 0.02 µM

CCCC[C@H](CN(O)C=O)NC(=O)Cc1cccc2ccccc12 [Example 1, N-{1R-[(Formyl-hydroxy-amino)-methyl]-pentyl}2-naphthalen-1-yl-acetamide]
MIC (Haemophilia influenza): 0.5 to 2 mg/L (≈ 1.52 to 6.09 µM)

CCCC[C@H](CN(O)C=O)NC(=O)c1coc2ccccc2c1=O [Example 5, 4-Oxo-4H-chromene-3-carboxylic acid {1R-[(formyl-hydroxy-amino)-methyl]-pentyl}amide]
IC50 (E coli PDF (Ni)): 0.2 µM

CCCC[C@H](CN(O)C=O)NC(=O)c1cn(C2CCCCC2)c2ccccc2c1=O [Example 3, 1-Cyclohexyl-4-oxo-1,4-dihydro-quinoline-3-carboxylic acid {1R[(formyl-hydroxy-amino)-methyl]-pentyl}-amide]
IC50 (E coli PDF (Ni)): 0.06 µM

CCCC[C@H](CN(O)C=O)NC(=O)c1cn(CC)c2cc3c(cc2c1=O)OCO3 [Example 2, 5-Ethyl-8-oxo-5,8-dihydro-[1,3]dioxolo[4,5]quinoline-7-carboxylic acid {1R-[(formyl-hydroxy-amino)-methyl]-pentyl}amide]
IC50 (E coli PDF (Ni)): 0.03 µM
